Where two headings read alike, the source gives them in different places.
Assays:
[1] = target: T1, GST-CIB1 : F-scrambled peptide (Homo sapiens, UniProt Q99828); assay: FP scrambled-peptide counter screen, 1536-well format; assay type: binding; details: for COUNTERSCREEN Curve Class / Curve Class (counterscreen): qHTS curve class; for COUNTERSCREEN Confirm?: YES/NO call
T1 construct: made in house; host or cells: BL-21 plus RIL cells (E. coli)
T1 sequence (Q99828 1-191): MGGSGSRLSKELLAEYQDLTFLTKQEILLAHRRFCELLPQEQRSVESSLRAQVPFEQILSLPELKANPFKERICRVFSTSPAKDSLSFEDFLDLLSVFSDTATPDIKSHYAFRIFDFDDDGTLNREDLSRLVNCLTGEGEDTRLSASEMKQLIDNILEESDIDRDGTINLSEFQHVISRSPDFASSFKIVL

[2] = target: T2, CIB1 and αIIb interaction (CIB1-GST : F-αIIb peptide) (Homo sapiens, UniProt Q99828); assay: FP assay, 1536-well qHTS format (primary and confirmatory screen); assay type: binding; details: for CONFIRMATORY SCREEN Curve Class / Curve Class (confirmatory screen): qHTS curve class
T2 construct: made in house; host or cells: BL-21 plus RIL cells (E. coli)
T2 sequence (Q99828 1-191): T1 sequence (Q99828 1-191)

[3] = qHTS FP screen hits, Table S2, negative = inhibition
[4] = qHTS FP screen hits, Table S2, one class per curve where COUNT > 1, negative sign = inhibitory curve
[5] = qHTS FP screen hits, Table S2, read-out: IC50
[6] = Table S3, counterscreen, a negative sign marks inhibitory curves
[7] = Table S3, counterscreen, negative = inhibition
[8] = Table S3, counterscreen, read-out: IC50 [μM] (counterscreen)
[9] = Table S3, confirmatory screen, YES/NO call
[10] = Table S3, confirmatory screen, a negative sign marks inhibitory curves
[11] = Table S3, confirmatory screen, negative = inhibition
[12] = Table S3, confirmatory screen, read-out: IC50 [μM] (confirmatory screen)
[13] = qHTS primary screen hits, Table S2, negative = inhibition
[14] = qHTS primary screen hits, Table S2, read-out: IC50
[15] = scrambled-peptide counterscreen
[16] = confirmatory screen, YES/NO call
[17] = confirmatory screen, negative sign = inhibitory curve
[18] = confirmatory screen, negative = inhibition
[19] = confirmatory screen, read-out: CONFIRMATORY SCREEN IC50
[20] = qHTS primary screen hits, Table S2, negative sign = inhibitory curve, several classes where COUNT > 1
[21] = counterscreen, negative sign = inhibitory curve
[22] = counterscreen, read-out: IC50 [μM] (counterscreen)
[23] = confirmatory screen, read-out: IC50 [μM] (confirmatory screen)

SMILES | Efficacy (%) [2, 3] | Curve Class [2, 4] | IC50 [2, 5] | Efficacy (%) [2, 13] | IC50 [2, 14] | Curve Class [2, 20] | Efficacy (%) (counterscreen) ([1]; counterscreen) | Curve Class (counterscreen) [1, 21] | IC50 [1, 22] | Efficacy (%) (confirmatory screen) ([2]; confirmatory screen) | Confirm? (confirmatory screen) ([2]; confirmatory screen, YES/NO) | Curve Class (confirmatory screen) [2, 17] | IC50 [2, 23] | also measured
O=C(c1ccccc1)c1c(O)cc(O)cc1O[C@@H]1O[C@H](CO)[C@@H](O)[C@H](O)[C@H]1O [NCGC00384934-01] | -29% | -1.2 | 25.1 µM |  |  |  |  |  |  |  |  |  |  | COUNTERSCREEN Efficacy (%) ([1]; counterscreen): -31%; COUNTERSCREEN Curve Class ([1]; counterscreen): 4; CONFIRMATORY SCREEN Efficacy (%) ([2]; confirmatory screen): -21%; CONFIRMATORY SCREEN Curve Class ([2]; confirmatory screen): 4
COc1cccc(C(=O)c2no[n+]([O-])c2C(=O)c2cccc(OC)c2)c1 [NCGC00351157-02] |  |  |  | -53% | 22.2 µM |  |  |  |  |  |  |  |  | Curve Class (counterscreen) [1, 6]: -1.2; Efficacy (%) (counterscreen) [1, 7]: -60%; IC50 [1, 8]: 17.8 µM; Confirm? (confirmatory screen) [2, 9]: YES; Curve Class (confirmatory screen) [2, 10]: -1.4; Efficacy (%) (confirmatory screen) [2, 11]: -52%; IC50 [2, 12]: 12.6 µM
CCC(OC(=O)c1ccc(S(C)(=O)=O)c([N+](=O)[O-])c1)C(=O)NC1C2CC3CC(C2)CC1C3 (centres unmarked) [NCGC00188536-01] |  |  |  | -27% | 1.4 µM | -1.4 |  |  |  |  |  |  |  | COUNTERSCREEN Efficacy (%) [1, 15]: -50%; COUNTERSCREEN Confirm? [1, 15]: YES; COUNTERSCREEN Curve Class [1, 15]: -2.2; IC50 ([1]; scrambled-peptide counterscreen, read-out: COUNTERSCREEN IC50): 31.6 µM; CONFIRMATORY SCREEN Confirm? [2, 16]: YES; CONFIRMATORY SCREEN Curve Class [2, 17]: -1.4; CONFIRMATORY SCREEN Efficacy (%) [2, 18]: -52%; IC50 [2, 19]: 2.5 µM
O=C(O)c1ccc(-n2cccc2/C=C2\SC(=O)N(Cc3cccc(Cl)c3)C2=O)cc1 [NCGC00182735-01] | -66% | -2.2 |  |  |  |  | -61% | -2.2 | 56.2 µM | -109% | YES | -2.1 |  | 
O=C(c1cc(O)c(O)c(O)c1)c1ccc(O)c(O)c1O [NCGC00249050-02] |  |  |  | -42% | 39.8 µM | -2.2 |  |  |  |  |  |  |  | Curve Class (counterscreen) [1, 6]: -1.1; Efficacy (%) (counterscreen) [1, 7]: -99%; IC50 [1, 8]: 25.1 µM; Confirm? (confirmatory screen) [2, 9]: YES; Curve Class (confirmatory screen) [2, 10]: -2.1; Efficacy (%) (confirmatory screen) [2, 11]: -86%; IC50 [2, 12]: 25.1 µM
COc1cccc(CN(C)c2ccc(S(=O)(=O)Nc3nccs3)cc2)c1O.O=C(O)C(F)(F)F [NCGC00318978-01] | -24% |  | 17.8 µM |  |  |  |  |  |  |  |  |  |  | Curve Class (counterscreen) [1, 6]: -2.4; Efficacy (%) (counterscreen) [1, 7]: -33%; IC50 [1, 8]: 39.8 µM; Confirm? (confirmatory screen) [2, 9]: YES; Curve Class (confirmatory screen) [2, 10]: -2.4; Efficacy (%) (confirmatory screen) [2, 11]: -35%; IC50 [2, 12]: 44.7 µM
Cl.O=[N+]([O-])c1ccc(CNc2ccc(S(=O)(=O)Nc3nccs3)cc2)c(O)c1 [NCGC00273519-01] |  |  |  | -24% | 7.9 µM | -1.4 | -48% | -2.2 | 25.1 µM | -67% | YES | -2.4 | 12.6 µM | 
CC(O)c1ccc(-c2ccc3ncnc(N4CCOCC4)c3c2)o1.O=C(O)C(F)(F)F (centres unmarked) [NCGC00238381-02] | -19% |  | 14.1 µM |  |  |  |  |  |  |  |  |  |  | COUNTERSCREEN Efficacy (%) ([1]; counterscreen): -14%; COUNTERSCREEN Curve Class ([1]; counterscreen): 4; CONFIRMATORY SCREEN Efficacy (%) ([2]; confirmatory screen): -26%; CONFIRMATORY SCREEN Curve Class ([2]; confirmatory screen): 4
Cc1cccc(C(=O)c2no[n+]([O-])c2C(=O)c2cccc(C)c2)c1.O=C(O)C(F)(F)F [NCGC00351156-01] |  |  |  | -52% | 7.9 µM | -1.2 | -65% | -1.2 | 10 µM | -73% | YES | -2.2 | 31.6 µM | 
O=C(O)C(F)(F)F.O=C(O)c1ccc(O)c2ncc(N3CCC(N4CCOCC4)C3)cc12 (centres unmarked) [NCGC00241757-01] | -22% |  | 35.5 µM |  |  |  |  |  |  |  |  |  |  | COUNTERSCREEN Efficacy (%) ([1]; counterscreen): -21%; COUNTERSCREEN Curve Class ([1]; counterscreen): 4; CONFIRMATORY SCREEN Efficacy (%) ([2]; confirmatory screen): -17%; CONFIRMATORY SCREEN Curve Class ([2]; confirmatory screen): 4
Cc1cc(/N=N/c2ccc(S(=O)(=O)Nc3ccccn3)cc2)c(N)cc1O [NCGC00356068-01] | -50% | -2.2 | 35.5 µM |  |  |  | -44% | -1.2 | 44.7 µM | -64% | YES | -2.2 | 39.8 µM | 
O=C(O)CSc1cc(NS(=O)(=O)c2ccc(Br)cc2)c2ccccc2c1O [NCGC00386409-01] | -87% | -2.2 | 44.7 µM |  |  |  | -60% | -1.2 | 5 µM | -92% | YES | -1.1 | 12.6 µM | 
N#Cc1ccc(Nc2nc(-c3ccc(O)cc3O)cs2)cc1C(F)(F)F [NCGC00386816-01] | -71% | -2.2 | 35.5 µM |  |  |  | -65% | -2.2 | 28.2 µM | -72% | YES | -2.2 | 50.1 µM | 
O=C(Cc1ccc(Cl)c(Cl)c1)Nc1ccc(S(=O)(=O)Nc2nncs2)cc1.O=C(O)C(F)(F)F [NCGC00248349-02] |  |  |  | -24% | 11.2 µM |  |  |  |  |  |  |  |  | COUNTERSCREEN Efficacy (%) [1, 15]: 12%; COUNTERSCREEN Confirm? [1, 15]: YES; COUNTERSCREEN Curve Class [1, 15]: 4; CONFIRMATORY SCREEN Confirm? [2, 16]: YES; CONFIRMATORY SCREEN Curve Class [2, 17]: -1.4; CONFIRMATORY SCREEN Efficacy (%) [2, 18]: -31%; IC50 [2, 19]: 12.6 µM; Curve Class ([2]; qHTS primary screen hits, Table S2, negative sign = inhibitory curve): -1.4
CC(=O)c1c(O)cc2cccc3c2c1CC(C)(O)O3 (centres unmarked) [NCGC00381142-01] | -51% | -2.2 | 50.1 µM |  |  |  |  |  |  |  |  |  |  | Curve Class (counterscreen) [1, 6]: -2.1; Efficacy (%) (counterscreen) [1, 7]: -99%; IC50 [1, 8]: 39.8 µM; Confirm? (confirmatory screen) [2, 9]: YES; Curve Class (confirmatory screen) [2, 10]: -2.2; Efficacy (%) (confirmatory screen) [2, 11]: -84%; IC50 [2, 12]: 39.8 µM
O=C(O)C(F)(F)F.O=C1CCC2=C1C1(CCCC1)N=C(Nc1nc3ccccc3o1)N2 [NCGC00188036-01] |  |  |  | -24% | 2.8 µM | -1.4 |  |  |  |  |  |  |  | COUNTERSCREEN Efficacy (%) ([1]; counterscreen): -10%; COUNTERSCREEN Curve Class ([1]; counterscreen): 4; CONFIRMATORY SCREEN Efficacy (%) ([2]; confirmatory screen): -27%; CONFIRMATORY SCREEN Curve Class ([2]; confirmatory screen): 4
